According to US11980596B2 (priority 2017, dated 2024):

What was measured:
[1] = system: subjects with TRD; settings: post dose
Procedure: The Clinician Administered Dissociative States Scale (CADSS) was measured prior to the start of each dose, at 40 minutes, and 1.5 hours postdose.

[2] = system: patients with treatment-resistant depression (TRD); test: Adverse events (Example 7); format: in vivo, human; settings: for Dissociation, number of participants / Dissociative disorder, % of participants / Dissociative disorder, number of participants / Dizziness, % of participants / Dizziness, number of participants / Dysgeusia, % of participants / Dysgeusia, number of participants / Feeling abnormal, % of participants / Feeling abnormal, number of participants / Headache, % of participants / Headache, number of participants / Hypersomnia, % of participants / Hypersomnia, number of participants / Hypertension, number of participants / Hypoesthesia oral, % of participants / Hypoesthesia oral, number of participants / Insomnia, number of participants / Nasal discomfort, number of participants / Nausea, % of participants / Nausea, number of participants / Oropharyngeal pain, number of participants / Polyuria, number of participants / Sedation, % of participants / Sedation, number of participants / Throat irritation, % of participants / Throat irritation, number of participants / Total with events, % of participants / Total with events, number of participants / Tunnel vision, number of participants / Vertigo, % of participants / Vertigo, number of participants / Vision blurred, number of participants / Dissociation, % of participants / Hypertension, % of participants / Insomnia, % of participants / Nasal discomfort, % of participants / Oropharyngeal pain, % of participants / Polyuria, % of participants / Tunnel vision, % of participants / Vision blurred, % of participants: double-blind
Procedure: Adverse events were monitored throughout the study. Other safety assessments (i.e., laboratory tests, vital signs, physical examination) were performed at pre-specified time points. Vital signs, the Clinician Administered Dissociative States Scale (CADSS; Bremner, “Measurement of dissociative states with the clinician-administered dissociative states scale (CADSS)”, J. Traumatic Stress, 1998, 11(1):125-136), and the 4-item positive symptom subscale from the Brief Psychiatric Rating Scale (BPRS; Overall, “The Brief Psychiatric Rating Scale. Psychological Reports”, 1962, 10:799-812) were assessed pre-dose, at 40 minutes, and 2 hours post-dose.
Safety data were analyzed in Period 1, Period 2, double-blind, and open-label data sets, for all subjects receiving at least 1 dose of study medication.

[3] = system: CYP2B6 and CYP3A4 and to a lesser extent CYP2C9 and CYP2C19; test: Metabolism by cytochrome P450 enzymes; settings: human

## CN[C@]1(c2ccccc2Cl)CCCCC1=O [esketamine, (S)-2-(2-chlorophenyl)-2-(methylamino)cyclohexanone]
[1]
  Dissociative and perceptual change symptoms (CADSS) resolved by: ≤ 1.5 h
[2]; esketamine 28 mg, N = 19
  Dissociation, number of participants: 0
  Dissociative disorder, % of participants: (11) %
  Dissociative disorder, number of participants: 2
  Dizziness, % of participants: (21) %
  Dizziness, number of participants: 4
  Dysgeusia, % of participants: (11) %
  Dysgeusia, number of participants: 2
  Feeling abnormal, % of participants: (11) %
  Feeling abnormal, number of participants: 2
  Headache, % of participants: (32) %
  Headache, number of participants: 6
  Hypersomnia, % of participants: (11) %
  Hypersomnia, number of participants: 2
  Hypertension, number of participants: 0
  Hypoesthesia oral, % of participants: (5) %
  Hypoesthesia oral, number of participants: 1
  Insomnia, number of participants: 0
  Nasal discomfort, number of participants: 0
  Nausea, % of participants: (11) %
  Nausea, number of participants: 2
  Oropharyngeal pain, number of participants: 0
  Polyuria, number of participants: 0
  Sedation, % of participants: (5) %
  Sedation, number of participants: 1
  Throat irritation, % of participants: (5) %
  Throat irritation, number of participants: 1
  Total with events, % of participants: (58) %
  Total with events, number of participants: 11
  Tunnel vision, number of participants: 0
  Vertigo, % of participants: (11) %
  Vertigo, number of participants: 2
  Vision blurred, number of participants: 0
[2]; esketamine 56 mg, N = 20
  Dissociation, % of participants: (35) %
  Dissociation, number of participants: 7
  Dissociative disorder, % of participants: (5) %
  Dissociative disorder, number of participants: 1
  Dizziness, % of participants: (40) %
  Dizziness, number of participants: 8
  Dysgeusia, % of participants: (15) %
  Dysgeusia, number of participants: 3
  Feeling abnormal, % of participants: (5) %
  Feeling abnormal, number of participants: 1
  Headache, % of participants: (15) %
  Headache, number of participants: 3
  Hypersomnia, number of participants: 0
  Hypertension, % of participants: (10) %
  Hypertension, number of participants: 2
  Hypoesthesia oral, % of participants: (20) %
  Hypoesthesia oral, number of participants: 4
  Insomnia, % of participants: (10) %
  Insomnia, number of participants: 2
  Nasal discomfort, % of participants: (10) %
  Nasal discomfort, number of participants: 2
  Nausea, % of participants: (20) %
  Nausea, number of participants: 4
  Oropharyngeal pain, % of participants: (5) %
  Oropharyngeal pain, number of participants: 1
  Polyuria, % of participants: (10) %
  Polyuria, number of participants: 2
  Sedation, % of participants: (10) %
  Sedation, number of participants: 2
  Throat irritation, number of participants: 0
  Total with events, % of participants: (80) %
  Total with events, number of participants: 16
  Tunnel vision, number of participants: 0
  Vertigo, % of participants: (5) %
  Vertigo, number of participants: 1
  Vision blurred, number of participants: 0
[2]; esketamine 84 mg, N = 17
  Dissociation, % of participants: (24) %
  Dissociation, number of participants: 4
  Dissociative disorder, % of participants: (24) %
  Dissociative disorder, number of participants: 4
  Dizziness, % of participants: (47) %
  Dizziness, number of participants: 8
  Dysgeusia, % of participants: (29) %
  Dysgeusia, number of participants: 5
  Feeling abnormal, % of participants: (6) %
  Feeling abnormal, number of participants: 1
  Headache, % of participants: (18) %
  Headache, number of participants: 3
  Hypersomnia, number of participants: 0
  Hypertension, % of participants: (6) %
  Hypertension, number of participants: 1
  Hypoesthesia oral, % of participants: (12) %
  Hypoesthesia oral, number of participants: 2
  Insomnia, number of participants: 0
  Nasal discomfort, % of participants: (6) %
  Nasal discomfort, number of participants: 1
  Nausea, % of participants: (24) %
  Nausea, number of participants: 4
  Oropharyngeal pain, % of participants: (12) %
  Oropharyngeal pain, number of participants: 2
  Polyuria, number of participants: 0
  Sedation, % of participants: (6) %
  Sedation, number of participants: 1
  Throat irritation, % of participants: (12) %
  Throat irritation, number of participants: 2
  Total with events, % of participants: (88) %
  Total with events, number of participants: 15
  Tunnel vision, % of participants: (12) %
  Tunnel vision, number of participants: 2
  Vertigo, % of participants: (6) %
  Vertigo, number of participants: 1
  Vision blurred, % of participants: (12) %
  Vision blurred, number of participants: 2
[2]; esketamine Total, N = 56
  Dissociation, % of participants: (20) %
  Dissociation, number of participants: 11
  Dissociative disorder, % of participants: (13) %
  Dissociative disorder, number of participants: 7
  Dizziness, % of participants: (36) %
  Dizziness, number of participants: 20
  Dysgeusia, % of participants: (18) %
  Dysgeusia, number of participants: 10
  Feeling abnormal, % of participants: (7) %
  Feeling abnormal, number of participants: 4
  Headache, % of participants: (21) %
  Headache, number of participants: 12
  Hypersomnia, % of participants: (4) %
  Hypersomnia, number of participants: 2
  Hypertension, % of participants: (5) %
  Hypertension, number of participants: 3
  Hypoesthesia oral, % of participants: (13) %
  Hypoesthesia oral, number of participants: 7
  Insomnia, % of participants: (4) %
  Insomnia, number of participants: 2
  Nasal discomfort, % of participants: (5) %
  Nasal discomfort, number of participants: 3
  Nausea, % of participants: (18) %
  Nausea, number of participants: 10
  Oropharyngeal pain, % of participants: (5) %
  Oropharyngeal pain, number of participants: 3
  Polyuria, % of participants: (4) %
  Polyuria, number of participants: 2
  Sedation, % of participants: (7) %
  Sedation, number of participants: 4
  Throat irritation, % of participants: (5) %
  Throat irritation, number of participants: 3
  Total with events, % of participants: (75) %
  Total with events, number of participants: 42
  Tunnel vision, % of participants: (4) %
  Tunnel vision, number of participants: 2
  Vertigo, % of participants: (7) %
  Vertigo, number of participants: 4
  Vision blurred, % of participants: (4) %
  Vision blurred, number of participants: 2
[2]; open-label phase
  Adverse event: dizziness: 38.6%
  Adverse event: dysgeusia: 22.8%
  Adverse event: headache: 14.0%
  Adverse event: nausea: 15.8%
  Adverse event: sedation: 10.5%
[3]
  Metabolic pathway: primarily metabolized to noresketamine metabolite via cytochrome P450 (CYP) enzymes CYP2B6 and CYP3A4
